Laboratory results: patent US12398179B2, “Nanomolar peptides and derivatives to differentially modulate ephrin receptors” (Sanford Burnham Prebys Medical Discovery Institute, priority 2019, dated 2025)
In brackets after ≈: the same amount, converted by molar mass. Read-outs that look alike come from different tables or passages of the source.

Tests used:
[1] = Peptide solubility in PBS/H2O
EphA2 [2] = target: T1, EphA2 (Homo sapiens, UniProt P29317); test: EphA2 Y588 autophosphorylation in PC3 cells (immunoblot); format: cell-based; set-up: endogenous EphA2 expressed in PC3 prostate cancer cells; endogenous in cells; host or cells: PC3 prostate cancer cells; settings: for EphA2 activation / Y588 phosphorylation (in words): 15 min
Experimental: (§1) PC3 cells were treated for 15 min with different concentrations of the indicated peptides. […] The graphs show quantification of pY588 and pAKT from multiple blots (averages±SE), normalized to total EphA2 levels. The number of experiments analyzed is: 5 in FIG. 4A, 3 in FIG. 4B, 7 in FIG. 4C, 7 in FIG. 4D, 5 in FIG. 4E, 3 in FIG. 4F, 3 in FIG. 4G and 2 in FIG. 4H.
PC3 cells were treated for 15 min with different concentrations of the indicated peptides. […] The graphs show quantification of pY588 or pAKT from multiple blots (averages±SE), normalized to total EphA2 levels. The number of experiments analyzed is: 3 in FIG. 10A, 6 in FIG. 10B, 2 in FIG. 10C, 5 in FIG. 10D, 4 in FIG. 10E and 3 in FIG. 10F.
Target sequence in this assay (P29317 24-976): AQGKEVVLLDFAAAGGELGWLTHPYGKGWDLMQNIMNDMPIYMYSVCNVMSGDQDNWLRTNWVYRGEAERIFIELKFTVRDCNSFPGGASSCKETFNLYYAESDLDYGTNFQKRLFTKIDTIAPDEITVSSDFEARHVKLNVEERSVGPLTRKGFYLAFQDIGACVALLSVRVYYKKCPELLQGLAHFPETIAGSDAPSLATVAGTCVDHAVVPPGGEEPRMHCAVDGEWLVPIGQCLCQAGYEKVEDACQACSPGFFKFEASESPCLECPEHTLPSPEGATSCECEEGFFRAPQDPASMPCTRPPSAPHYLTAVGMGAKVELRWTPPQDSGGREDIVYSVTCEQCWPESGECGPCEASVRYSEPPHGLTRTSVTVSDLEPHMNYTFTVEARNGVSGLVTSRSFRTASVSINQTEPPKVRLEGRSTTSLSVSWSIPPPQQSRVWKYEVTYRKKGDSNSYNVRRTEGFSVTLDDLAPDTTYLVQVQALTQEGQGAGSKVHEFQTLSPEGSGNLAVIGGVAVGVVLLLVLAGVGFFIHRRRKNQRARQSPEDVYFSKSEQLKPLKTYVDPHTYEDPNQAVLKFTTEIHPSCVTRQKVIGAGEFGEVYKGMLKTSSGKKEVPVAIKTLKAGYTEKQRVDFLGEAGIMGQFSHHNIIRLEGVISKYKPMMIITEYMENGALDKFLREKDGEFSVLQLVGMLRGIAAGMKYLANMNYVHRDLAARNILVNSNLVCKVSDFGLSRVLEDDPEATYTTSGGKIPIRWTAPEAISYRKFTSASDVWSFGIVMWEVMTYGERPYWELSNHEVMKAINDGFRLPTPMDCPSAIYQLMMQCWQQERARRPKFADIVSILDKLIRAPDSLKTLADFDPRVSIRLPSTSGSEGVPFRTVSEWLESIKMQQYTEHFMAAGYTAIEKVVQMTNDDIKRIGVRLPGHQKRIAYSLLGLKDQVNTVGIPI

EphA2 [3] = target: T1, EphA2; test: ELISA: inhibition of ephrin-A5 AP binding to immobilized EphA2 Fc; set-up: the immobilized EphA2 extracellular domain fused to the Fc portion of an antibody (EphA2 Fc); settings: average ± SE
Experimental: (FIG. 2A) Representative ELISAs comparing the ability of the peptides to inhibit binding of ephrin-A5 fused to alkaline phosphatase (ephrin-A5 AP) to the immobilized EphA2 extracellular domain fused to the Fc portion of an antibody (EphA2 Fc). The graphs show averages±SE from triplicate measurements from a representative experiment. IC50 values calculated from the fitted curves in each experiment are shown. All concentrations are nM and the 100 nM peptide concentration is outlined in red. (FIG. 2B) Ephrin-A5 AP binding to the indicated EphA receptors and ephrin-B2 AP binding to the indicated EphB receptors in the presence of the indicated peptide, normalized to ephrin binding without peptide. The bars show averages±SE from triplicate measurements.
Target sequence in this assay (P29317 24-537 limits assumed, species assumed): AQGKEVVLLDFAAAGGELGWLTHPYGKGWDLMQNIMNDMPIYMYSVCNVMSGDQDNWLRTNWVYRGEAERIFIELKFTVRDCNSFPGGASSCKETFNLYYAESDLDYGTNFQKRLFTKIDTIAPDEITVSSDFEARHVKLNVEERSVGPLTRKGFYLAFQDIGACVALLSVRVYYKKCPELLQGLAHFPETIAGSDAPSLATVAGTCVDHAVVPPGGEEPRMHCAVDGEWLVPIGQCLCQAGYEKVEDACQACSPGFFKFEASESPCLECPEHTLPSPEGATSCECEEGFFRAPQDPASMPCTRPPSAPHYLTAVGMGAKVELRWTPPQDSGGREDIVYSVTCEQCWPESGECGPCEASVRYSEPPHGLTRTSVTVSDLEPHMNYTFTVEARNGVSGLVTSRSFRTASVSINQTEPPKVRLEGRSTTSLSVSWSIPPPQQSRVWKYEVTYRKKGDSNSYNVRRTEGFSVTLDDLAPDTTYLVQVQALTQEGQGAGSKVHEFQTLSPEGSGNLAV

EphA2 WT = target: T2, EphA2 WT (Homo sapiens, UniProt P29317); test: Quantitative FRET of EphA2 oligomerization in HEK293 cells; format: cell-based; settings: transiently transfected HEK293 cells; 50 μM for YSA-GSGSK-bio
T2 construct: expressed in transfected cells; host or cells: HEK293 (transient transfection)
T2 sequence (P29317 24-976): as the sequence (P29317 24-976) above

EphA2 G131Y = target: T3, EphA2 G131Y (Homo sapiens, UniProt P29317, G131Y); test: as above; format: cell-based; settings: 50 μM peptide
T3 construct: expressed in transfected cells; host or cells: HEK293 (transient transfection)
T3 sequence (P29317 24-976 G131Y): as the sequence (P29317 24-976) above, with G108Y counted along it
Text: (§2) (FIG. 5F) Two-dimensional dissociation constant values (Kdiss) and dimerization free energy values (ΔG=−RT×In (10^6/Kdiss) calculated from the curves shown in the other panels. Shown are the best fit values and the […] confidence intervals (standard errors). Kdiss values for all curves were compared to each other using one-way ANOVA followed by Tukey's multiple comparison test; *, P<0.05; **, P<0.01; ***, P<0.001; * P<0.0001; ns, not significant.
(§3) Thus, the peptide enhanced the weak EphA2 dimerization observed in the absence of a bound ligand, which also occurred through the clustering interface. In contrast, the monomeric soluble form of ephrin-Al induced the formation of EphA2 dimers that assembled through another extracellular interface known as the “heterodimerization” or “dimerization” interface.

EphA2 L223R/L254R/V255R = target: T4, EphA2 L223R/L254R/V255R (Homo sapiens, UniProt P29317, L223R/L254R/V255R); test: as above; format: cell-based; settings: 50 μM peptide
T4 construct: expressed in transfected cells; host or cells: HEK293 (transient transfection)
T4 sequence (P29317 24-976 L223R/L254R/V255R): as the sequence (P29317 24-976) above, with L200R, L231R, V232R counted along it
Text: as §2, §3

EphA2 LBD = target: T5, EphA2 LBD (Homo sapiens, UniProt P29317); test: Isothermal titration calorimetry (ITC) of peptide binding
T5 construct: EphA2 LBD (residues 28-200); made in house; host or cells: E. coli Origami 2 (DE3)
T5 sequence (P29317 28-200): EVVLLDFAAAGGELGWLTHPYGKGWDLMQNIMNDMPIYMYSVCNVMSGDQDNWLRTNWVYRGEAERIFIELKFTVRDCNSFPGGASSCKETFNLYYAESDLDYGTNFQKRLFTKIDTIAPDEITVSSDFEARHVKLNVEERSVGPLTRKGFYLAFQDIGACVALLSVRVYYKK
Experimental: For ITC, all peptides were dissolved in DMSO and both the EphA2 LBD and the peptides were diluted to obtain a final buffer containing 9.5 mM HEPES, pH 7.9, 95 mM NaCl, and 5% DMSO. […] Two-microliter aliquots of a peptide solution were injected into the cell containing 205 μL EphA2 LBD. 200-400 μM peptides were titrated into 20-40 μM EphA2 LBD. Experimental data were analyzed using the Origin software package (Microcal). The integrated values for the reaction heats were normalized to the amount of injected peptide after blank subtraction.

AKT = AKT S473 phosphorylation in PC3 cells (immunoblot); format: cell-based; settings: peptide then 0.1 μg/ml ephrin-A1 Fc
Experimental: as §1

EphA2 [4] = target: T1, EphA2; test: Inhibition of ephrin-A1 Fc-induced EphA2 Y588 phosphorylation in PC3 cells; format: cell-based; set-up: endogenous EphA2 expressed in PC3 prostate cancer cells; endogenous in cells; host or cells: PC3 prostate cancer cells; settings: 20 min peptide then 0.1 μg/ml ephrin-A1 Fc
Experimental: PC3 cells were treated for 20 min with different concentrations of the indicated peptides and then activated with 0.1 μg/ml ephrin-Al Fc. The immunoblots show EphA2 autophosphorylation on tyrosine 588 (pY588, indicative of receptor activation), total EphA2 levels, and AKT phosphorylation on S473 (indicative of AKT activation). pY588 values were normalized to the value obtained in the same blot with ephrin-Al Fc treatment in the absence of peptide. pAKT values were normalized to the value obtained in the same blot without ephrin-A1 Fc or peptide treatment. Calculated EC50 and IC50 values are shown. The graphs show quantification of pY588 and pAKT from 7 blots for each peptide (averages±SE), normalized to total EphA2 levels.
Target sequence in this assay (P29317 24-976): as the sequence (P29317 24-976) above

[5] = PBS, Solubility in PBS (mg/ml), PBS (first figure of cell)
[6] = water, Solubility in H2O (mg/ml), H2O (second figure of cell)
[7] = EphA2 LBD, 23° C., average ± SE (Table 1), read-out: KD (nM) by ITC

SMILES | solubility [1, 5] [µg/mL] | solubility [1, 6] [µg/mL] | EphA2 activation / Y588 phosphorylation (in words) (EphA2 [2]) | IC50 (EphA2 [3]) [nM] | Kd (EphA2 LBD; [7]) [nM] | further results
CC(=O)NCCCC[C@H](NC(=O)[C@@H]1CCCN1C(=O)[C@H](CCCNC(=N)N)NC(=O)[C@H](Cc1ccc(O)cc1)NC(=O)[C@@H]1CCCN1C(=O)[C@@H](NC(=O)[C@H](CO)NC(=O)[C@H](CC(=O)O)NC(=O)[C@@H]1CCCN1C(=O)[C@H](Cc1ccc(O)cc1)NC(=O)[C@H](C)NC(=O)[C@H](CC(C)C)NC(=O)[C@H](Cc1c[nH]c2ccccc12)NC(=O)CCN)C(C)C)C(=O)O [βA-WLA-YRP-ack] | 5000 (≈ 2.93 mM) | 5000 (≈ 2.93 mM) | only slightly increased agonistic ability | 82 ± 10 |  | 
CC(C)C[C@H](NC(=O)[C@H](Cc1c[nH]c2ccccc12)NC(=O)CCN)C(=O)N[C@@H](C)C(=O)N[C@@H](Cc1ccc(O)cc1)C(=O)N1CCC[C@H]1C(=O)N[C@@H](CC(=O)O)C(=O)N[C@@H](CO)C(=O)N[C@H](C(=O)N1CCC[C@H]1C(=O)N[C@@H](Cc1ccc(O)cc1)C(=O)N[C@@H](CCCNC(=N)N)C(=O)N1CCC[C@H]1C(=O)N[C@@H](CCCCNC(=O)CCCC[C@@H]1SC[C@@H]2NC(=O)N[C@@H]21)C(N)=O)C(C)C [βA-WLA-YRPKam-bio] | 2000 (≈ 1.06 mM) | 5000 (≈ 2.65 mM) | induce high levels of EphA2 phosphorylation | 18 ± 1 |  | 
CSCC[C@H](NC(=O)[C@H](CCSC)NC(=O)[C@@H]1CCCN1C(=O)[C@@H](NC(=O)[C@H](CO)NC(=O)[C@H](CC(=O)O)NC(=O)[C@@H]1CCCN1C(=O)[C@H](Cc1ccc(O)cc1)NC(=O)[C@H](C)NC(=O)[C@H](CO)NC(=O)[C@@H](N)Cc1ccc(O)cc1)C(C)C)C(=O)N[C@@H](CO)C(=O)NCC(=O)N[C@@H](CO)C(=O)NCC(=O)N[C@@H](CO)C(=O)N[C@@H](CCCCNC(=O)CCCC[C@@H]1SC[C@@H]2NC(=O)N[C@@H]21)C(=O)O [YSA-GSGSK-bio] | 15000 (≈ 7.54 mM) | 15000 (≈ 7.54 mM) |  |  |  | EphA2 WT oligomerization by FRET (EphA2 WT): substantially increased the oligomeric fraction; EphA2 G131Y oligomerization by FRET (EphA2 G131Y): had no effect on/reduced oligomerization; EphA2 L223R/L254R/V255R oligomerization by FRET (EphA2 L223R/L254R/V255R): promoted substantial oligomerization
CC(C)C[C@H](NC(=O)[C@H](Cc1c[nH]c2ccccc12)NC(=O)[C@@H](N)CO)C(=O)N[C@@H](C)C(=O)N[C@@H](Cc1ccc(O)cc1)C(=O)N1CCC[C@H]1C(=O)NCC(=O)N[C@@H](C)C(=O)N[C@H](C(=O)N[C@@H](CO)C(=O)N[C@@H](Cc1ccc(O)cc1)C(=O)N[C@@H](CCCN=C(N)N)C(=O)O)C(C)C [SWL] |  |  |  |  |  | solubility (physchem; Solubility in H2O (mg/ml)): 10000 µg/mL (≈ 7.3 mM); solubility (physchem; Solubility in PBS (mg/ml)): 5000 µg/mL (≈ 3.65 mM)
CC(C)C[C@H](NC(=O)[C@H](Cc1c[nH]c2ccccc12)NC(=O)CCN)C(=O)N[C@@H](C)C(=O)N[C@@H](Cc1ccc(O)cc1)C(=O)N1CCC[C@H]1C(=O)N[C@@H](CC(=O)O)C(=O)N[C@@H](CO)C(=O)N[C@H](C(=O)N1CCC[C@H]1C(=O)N[C@@H](Cc1ccc(O)cc1)C(=O)N[C@@H](CCCNC(=N)N)C(=O)N1CCC[C@H]1C(=O)N[C@@H](CCCCN)C(=O)O)C(C)C [βA-WLA-YRPK] | 10000 (≈ 6.01 mM) | 10000 (≈ 6.01 mM) | substantial ability to activate EphA2 | 55 ± 5 | 190 | maximal Y588 phosphorylation lower than biotinylated peptide (EphA2 [2]; saturating peptide concentrations): about 40%; Kd (EphA2 LBD; read-out: binding affinity for the EphA2 LBD measured by ITC): ~200 nM
CC(C)C[C@H](NC(=O)[C@H](Cc1c[nH]c2ccccc12)NC(=O)CCN)C(=O)N[C@@H](C)C(=O)N[C@@H](Cc1ccc(O)cc1)C(=O)N1CCC[C@H]1C(=O)N[C@@H](CC(=O)O)C(=O)N[C@@H](CO)C(=O)N[C@H](C(=O)N1CCC[C@H]1C(=O)N[C@@H](Cc1ccc(O)cc1)C(=O)N[C@@H](CCCNC(=N)N)C(=O)N1CCC[C@H]1C(=O)N[C@@H](CCCCN)C(N)=O)C(C)C [βA-WLA-YRPKam] | 10000 (≈ 6.02 mM) | 10000 (≈ 6.02 mM) |  | 19 ± 2 | 110 | effect on AKT inhibition caused by EphA2 activation (AKT): prevented the inhibitory effects; effect on EphA2 Y588 phosphorylation induced by ephrin-A1 Fc (EphA2 [4]): inhibited
